These results are taken from patent publication US8324250B2 (Hoffmann-La Roche Inc., priority 2009, dated 2012).

What is called Ki is a measure of affinity in units of concentration, obtained from inhibition or displacement.

This test deals with T1, recombinant human NK3 receptor (Homo sapiens, UniProt P29371).
T1 construct: expressed in transfected cells; host or cells: HEK293 cells (transient expression), membranes
T1 sequence (P29371 1-465): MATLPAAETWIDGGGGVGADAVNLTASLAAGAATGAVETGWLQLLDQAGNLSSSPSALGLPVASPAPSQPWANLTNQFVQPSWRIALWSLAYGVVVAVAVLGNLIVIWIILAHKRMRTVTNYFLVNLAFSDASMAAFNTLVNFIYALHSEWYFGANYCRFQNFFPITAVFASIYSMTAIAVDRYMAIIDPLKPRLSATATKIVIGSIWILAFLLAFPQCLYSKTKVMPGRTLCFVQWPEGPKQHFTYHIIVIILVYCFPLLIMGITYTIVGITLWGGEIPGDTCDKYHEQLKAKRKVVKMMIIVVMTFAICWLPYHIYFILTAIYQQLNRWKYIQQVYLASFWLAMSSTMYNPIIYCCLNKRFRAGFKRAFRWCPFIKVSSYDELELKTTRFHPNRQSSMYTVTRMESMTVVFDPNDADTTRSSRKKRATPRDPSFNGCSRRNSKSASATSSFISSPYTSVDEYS
As to the kind of experiment: [3H]SR142801 competition binding assay. The note with it: membranes from HEK293 cells transiently expressing recombinant human NK3 receptor; [3H]SR142801 radioligand; 75 min at RT; Ki by Cheng-Prussoff; read-out: Data Ki (hNK-3 receptor affinity). On the procedure: [^3H]SR142801 Competition Binding Assay
hNK3 receptor binding experiment were performed using [^3H]SR142801 (Catalog No. TRK1035, specific activity: 74.0 Ci/mmol, Amersham, GE Healthcare UK limited, Buckinghamshire, UK) and membrane isolated from HEK293 cells transiently expressing recombinant human NK3 receptor. After thawing, the membrane homogenates were centrifuged at 48,000×g for 10 min at 4° C., the pellets were resuspended in the 50 mM Tris-HCl, 4 mM MnCl2, 1 μM phosphoramidon, 0.1% BSA binding buffer at pH 7.4 to a final assay concentration of 5 μg protein/well. […] At the end of the incubation, membranes were filtered onto unitfilter (96-well white microplate with bonded GF/C filter preincubated 1 h in 0.3% PEI+0.3% BSA, Packard BioScience, Meriden, Conn.) with a Filtermate 196 harvester (Packard BioScience) and washed 4 times with ice-cold 50 mM Tris-HCl, pH 7.4 buffer. Nonspecific binding was measured in the presence of 10 μM SB222200 for both radioligands. The radioactivity on the filter was counted (5 min) on a Packard Top-count microplate scintillation counter with quenching correction after addition of 45 μl of microscint 40 (Can berra Packard S. A., Zurich, Switzerland) and shaking for 1 h. Inhibition curves were fitted according to the Hill equation: y=100/(1+(x/IC50)^nH), where nH=slope factor using Excel-fit 4 software (Microsoft). IC50 values were derived from the inhibition curve and the affinity constant (Ki) values were calculated using the Cheng-Prussoff equation Ki═IC50/(1+[L]/KD) where [L] is the concentration of radioligand and KD is its dissociation constant at the receptor, derived from the saturation isotherm. All experiments were performed in duplicate and the mean±standard error (SEM) of the individual Ki values was calculated.
On to `Cc1noc(-c2ccc(C(=O)N3CCC(C(=O)N[C@@H](C)c4ccccc4)(c4ccc(F)cc4)CC3)cc2)n1` [Example 81, 4-(4-Fluoro-phenyl)-1-[4-(3-methyl-[1,2,4]oxa-diazol-5-yl)-benzoyl]-piperidine-4-carboxylic acid ((S)-1-phenyl-ethyl)-amide], for which the Ki worked out at 6 nM.

In the case of `Cc1noc(-c2ccc(C(=O)N3CCC(C(=O)N[C@@H](C)c4ccc(F)cc4)(c4ccccc4)CC3)cn2)n1` [Example 82, 1-[6-(3-Methyl-[1,2,4]oxa-diazol-5-yl)-pyridine-3-carbonyl]-4-phenyl-piperidine-4-carboxylic acid [(S)-1-(4-fluoro-phenyl)-ethyl]-amide], the Ki worked out at 5.3 nM.

On to `CC[C@H](NC(=O)C1(c2ccccc2)CCN(C(=O)c2ccc(-c3nc(C)no3)cc2)CC1)c1ccccc1` [Example 83, 1-[4-(3-Methyl-[1,2,4]oxa-diazol-5-yl)-benzoyl]-4-phenyl-piperidine 4-carboxylic acid ((S)-1-phenyl-propyl)-amide], for which the Ki was 1.1 nM.

Take `CC[C@H](NC(=O)C1(c2ccccc2)CCN(C(=O)c2ccc(N3CCS(=O)(=O)CC3)cc2)CC1)c1ccccc1` [Example 84, 1-[4-(1,1-Dioxo-1λ6-thiomor-pholin-4-yl)-benzoyl]-4-phenyl-piperidine-4-carboxylic acid ((S)-1-phenyl-propyl)-amide]: the Ki amounted to 2.8 nM.

In the case of `CC[C@H](NC(=O)C1(c2ccccc2)CCN(C(=O)c2ccc(-c3ccc(F)cc3)cc2)CC1)c1ccccc1` [Example 85, 1-(4′-Fluoro-biphenyl-4-carbonyl)-4-phenyl-piperidine-4-carboxylic acid ((S)-1-phenyl-propyl)-amide], the Ki worked out at 2.7 nM.

Regarding `Cc1noc(-c2ccc(C(=O)N3CCC(C(=O)N[C@@H](C)c4ccc(F)cc4)(c4ccc(F)cc4)CC3)cc2)n1` [Example 88, 4-(4-Fluoro-phenyl)-1-{4-(3-methyl-[1,2,4]oxa-diazol-5-yl)-benzoyl] piperidine-4-carboxylic acid [(S)-1-(4-fluoro-phenyl)-ethyl]-amide], the Ki was determined as 6.2 nM.

Regarding `C[C@H](NC(=O)C1(c2ccc(F)cc2)CCN(C(=O)c2ccc(-c3ccc(F)cc3)cc2)CC1)c1ccc(F)cc1` [Example 89, 1-(4′-Fluoro-biphenyl-4-carbonyl)-4-(4-fluoro-piperidine-phenyl)-4-carboxylic acid [(S)-1-(4-fluoro-phenyl)-ethyl]-amide], the Ki is 18.3 nM.

Consider `Cc1noc(-c2ccc(C(=O)N3CCC(C(=O)N[C@@H](C)C4CCCCC4)(c4ccc(F)cc4)CC3)cc2)n1` [Example 90], for which the Ki turned out to be 2.6 nM.

`C[C@H](NC(=O)C1(c2ccc(F)cc2)CCN(C(=O)c2ccc(N3CCS(=O)(=O)CC3)cc2)CC1)C1CCCCC1` [Example 91, 1-[4-(1,1-Dioxo-1λ6 thiomor-pholin-4-yl)-benzoyl]-4-(4-fluoro-phenyl)-piperidine-4-carboxylic acid ((S)-1-cyclohexyl-ethyl)-amide]: the Ki was determined as 7.6 nM.

Consider `C[C@H](NC(=O)C1(c2ccc(F)cc2)CCN(C(=O)c2ccc(-c3ccc(F)cc3)cc2)CC1)C1CCCCC1` [Example 92, 1-(4′-Fluoro-biphenyl-4-carbonyl)-4-(4-fluoro-phenyl)-piperidine-4-carboxylic acid ((S)-1-cyclohexyl-ethyl)-amide], for which the Ki is 5.1 nM.

For the compound `C[C@H](NC(=O)C1(c2ccccc2)CCN(C(=O)c2ccc(N3CCS(=O)(=O)CC3)nc2)CC1)c1ccccc1` [Example 98, 1-[6-(1,1-Dioxo-1λ6-thiomor-pholin-4-yl)-pyridine-3-carbonyl]-4-phenyl-piperidine-4-carboxylic acid ((S)-1-phenyl-ethyl)-amide], the Ki came out at 33.6 nM.

As for `C[C@H](NC(=O)C1(c2ccccc2)CCN(C(=O)c2ccc(N3CCS(=O)(=O)CC3)cc2)CC1)c1ccc(Cl)cc1` [Example 101, 1-[4-(1,1-Dioxo-1λ6-thiomor-pholin-4-yl)-benzoyl]-4-phenyl-pipendine-4-carboxylic acid [(S)-1-(4-chloro-phenyl)-ethyl]-amide], the Ki came to 17.4 nM.

In the case of `C[C@H](NC(=O)C1(c2ccccc2)CCN(C(=O)c2ccc(-c3ccc(F)cc3)cc2)CC1)c1ccc(Cl)cc1` [Example 102, 1-(4′-Fluoro-biphenyl-4-carbonyl)-4-phenyl-piperidine-4-carboxylic acid [(S)-1-(4-chloro-phenyl)-ethyl]-amide], the Ki was 17.2 nM.

As to `Cc1noc(-c2ccc(C(=O)N3CCC(C(=O)N[C@@H](C)c4ccc(Cl)cc4)(c4ccccc4)CC3)cc2)n1` [Example 104, 1-[4-(3-Methyl-[1,2,4]oxa-diazol-5-yl)-benzoyl]-4-phenyl-piperidine-4-carboxylic acid [(S)-1-(4-chloro-phenyl)-ethyl]-amide], the Ki is 11.2 nM.

In the case of `Cc1noc(-c2ccc(C(=O)N3CCC(C(=O)N(C)Cc4ccc(F)cc4)(c4ccccc4)CC3)cc2)n1` [Example 105, 1-[4-(3-Methyl-[1,2,4]oxa-diazol-5-yl)-benzoyl]-4-phenyl-piperidine-4-carboxylic acid (4-fluoro-benzyl)-methyl-amide], the Ki was 5.2 nM.

Take `CN(Cc1ccc(F)cc1)C(=O)C1(c2ccccc2)CCN(C(=O)c2ccc(N3CCS(=O)(=O)CC3)cc2)CC1` [Example 106, 1-[4-(1,1-Dioxo-1λ6-thiomor-pholin-4-yl)-benzoyl]-4-phenyl-piperidine-4-carboxylic acid (4-fluoro-benzyl)-methyl-amide]: the Ki turned out to be 56.3 nM.

Consider `Cc1noc(-c2ccc(C(=O)N3CCC(C(=O)N[C@@H](C)c4ccc(F)cc4)(C4CCCCC4)CC3)cc2)n1` [Example 109, 4-Cyclohexyl-1-[4-(3-methyl-[1,2,4]oxa-diazol-5-yl)-benzoyl]-piperidine-4-carboxylic acid [(S)-1-(4-fluoro-phenyl)-ethyl]-amide], for which the Ki came out at 82 nM.

Take `C[C@H](NC(=O)C1(C2CCCC2)CCN(C(=O)c2ccc(-c3ccc(F)cc3)cc2)CC1)c1ccc(F)cc1` [Example 110, 4- Cyclopentyl-1-(4′-fluoro-biphenyl-4-carbonyl)-piperidine-4-carboxylic acid [(S)-1-(4-fluoro-phenyl)-ethyl]-amide]: the Ki was 52.2 nM.

With `Cc1noc(-c2ccc(C(=O)N3CCC(C(=O)N[C@@H](C)c4ccc(F)cc4)(C4CCCC4)CC3)cc2)n1` [Example 111, 4- Cyclopentyl-1-[4-(3-methyl-[1,2,4]oxa-diazol-5-yl)-benzoyl]-piperidine-4-carboxylic acid [(S)-1-(4-fluoro-phenyl)-ethyl]-amide], the Ki amounted to 39.8 nM.

Regarding `Cc1nc(-c2ccc(C(=O)N3CCC(C(=O)N[C@@H](C)c4ccc(F)cc4)(C4CCCC4)CC3)cc2)no1` [Example 112, 4- Cyclopentyl-1-[4-(5-methyl-[1,2,4]oxa-diazol-3-yl)-benzoyl]-piperidine-4-carboxylic acid [(S)-1-(4-fluoro-phenyl)-ethyl]-amide], the Ki was determined as 82.8 nM.

Turning to `C=C(C)CC1(C(=O)N[C@@H](C)c2ccc(F)cc2)CCN(C(=O)c2ccc(-c3ccc(F)cc3)cc2)CC1` [Example 113, 1-(4′-Fluoro-biphenyl-4-carbonyl)-4-(2-methyl-allyl)-piperidine-4-carboxylic acid [(S)-1-(4-fluoro-phenyl)-ethyl]-amide], the inhibition constant Ki was 35.6 nM.

For the compound `Cc1noc(-c2ccc(C(=O)N3CCC(C(=O)N[C@@H](C)c4ccc(C(F)(F)F)cc4)(c4ccccc4)CC3)cc2)n1` [Example 114, 1-[4-(3-Methyl-[1,2,4]oxadiazol-5-yl)-benzoyl]-4-phenyl-piperidine-4-carboxylic acid [(S)-1-(4-trifluoromethyl-phenyl)-ethyl]-amide], the Ki was found to be 90.5 nM.

For the compound `Cc1noc(-c2ccc(C(=O)N3CCC(C(=O)NC(C)(C)c4ccccc4)(c4ccccc4)CC3)cc2)n1` [Example 116, 1-[4-(3-Methyl-[1,2,4]oxadiazol-5-yl)-benzoyl]-4-phenyl-piperidine-4-carboxylic acid (1-methyl-1-phenyl-ethyl)-amide], the Ki came out at 22.6 nM.
